Numbers after ± are expanded uncertainties.
Assays:
[1] = Crystal; Adiabatic calorimetry
[2] = Molar enthalpy of transition or fusion; conditions: Crystal; Adiabatic calorimetry

- Normal melting temperature [1]: 3.68 ± 0.05 °C
- Molar enthalpy of transition or fusion [2]: 6.13 ± 0.094 kJ/mol
SMILES: [2H]O[2H] [water-d2]

From the NIST ThermoML archive (doi:10.1016/j.jct.2005.09.005)
